pKi: −log10 of the molar value. A value given as a limit tells only on which side of the number the result lay.

Broadly, the pKi is −log10 of the Ki, conventionally taken in molar units.

This assay deals with human GlyT1c transporter (Homo sapiens (Human), UniProt P48067). Nature of the assay: Radioligand binding assays using recombinant CHO cell membranes expressing human GlyT1. Conditions: radioligand binding, human GlyT1c transporter-expressing CHO cell membranes.
human GlyT1c transporter, sequence (P48067 whole entry): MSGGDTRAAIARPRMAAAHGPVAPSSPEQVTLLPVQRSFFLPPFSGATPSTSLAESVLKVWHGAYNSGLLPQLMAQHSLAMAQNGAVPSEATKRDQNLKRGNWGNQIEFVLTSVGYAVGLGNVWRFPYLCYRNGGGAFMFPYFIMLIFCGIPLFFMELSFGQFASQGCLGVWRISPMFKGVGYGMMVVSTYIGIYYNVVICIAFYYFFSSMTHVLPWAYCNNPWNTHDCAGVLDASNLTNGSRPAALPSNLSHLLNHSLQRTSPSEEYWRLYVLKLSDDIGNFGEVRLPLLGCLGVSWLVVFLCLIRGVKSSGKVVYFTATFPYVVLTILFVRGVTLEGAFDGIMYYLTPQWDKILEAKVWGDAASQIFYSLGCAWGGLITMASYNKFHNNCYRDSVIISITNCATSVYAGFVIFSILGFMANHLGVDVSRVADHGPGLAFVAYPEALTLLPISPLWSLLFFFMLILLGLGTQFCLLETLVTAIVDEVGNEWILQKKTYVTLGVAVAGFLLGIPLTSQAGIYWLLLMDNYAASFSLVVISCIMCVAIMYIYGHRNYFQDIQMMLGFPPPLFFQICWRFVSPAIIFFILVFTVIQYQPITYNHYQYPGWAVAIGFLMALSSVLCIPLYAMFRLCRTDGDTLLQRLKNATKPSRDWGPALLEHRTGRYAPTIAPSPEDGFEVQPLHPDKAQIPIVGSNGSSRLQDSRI
On to `Cn1ccc(S(=O)(=O)N2CC(Nc3ccc(F)c(F)c3)C(c3ccccc3)C2)n1` (stereo not drawn) [Example 502, N-(3,4-difluorophenyl)-1-[(1-methyl-1H-pyrazol-3-yl)sulfonyl]-4-phenylpyrrolidin-3-amine], for which the negative logarithm of the Ki (pKi) is no less than 5.00.
Consider `COC(=O)c1ccc(S(=O)(=O)N2CC(Nc3ccc(F)c(F)c3)C(c3ccccc3)C2)n1C` (stereo not drawn) [Example 504, methyl 5-({3-[(3,4-difluorophenyl)amino]-4-phenylpyrrolidin-1-yl}sulfonyl)-1-methyl-1H-pyrrole-2-carboxylate], for which the negative logarithm of the Ki (pKi) is no less than 5.00.
To `Cc1nn(C)c(C)c1S(=O)(=O)N1CC(Nc2ccc(F)c(F)c2)C(c2ccccc2)C1` (stereo not drawn) [Example 508, N-(3,4-difluorophenyl)-4-phenyl-1-[(1,3,5-trimethyl-1H-pyrazol-4-yl)sulfonyl]pyrrolidin-3-amine] belongs no less than 5.00; to `O=S(=O)(C1CCC1)N1CC(Nc2ccc(F)c(F)c2)C(c2ccccc2)C1` (stereo not drawn) [Example 509, 1-(cyclobutylsulfonyl)-N-(3,4-difluorophenyl)-4-phenylpyrrolidin-3-amine], no less than 5.00; to `O=S(=O)(c1ccc(Cl)s1)N1CC(Nc2ccc(F)c(F)c2)C(c2ccccc2)C1` (stereo not drawn) [Example 511, 1-[(5-chlorothiophen-2-yl)sulfonyl]-N-(3,4-difluorophenyl)-4-phenylpyrrolidin-3-amine], no less than 5.00.
To `Cn1nccc1S(=O)(=O)N1CC(Nc2ccc(F)c(F)c2)C(c2ccccc2)C1` (stereo not drawn) [Example 516, N-(3,4-difluorophenyl)-1-[(1-methyl-1H-pyrazol-5-yl)sulfonyl]-4-phenylpyrrolidin-3-amine] belongs no less than 5.00.
To `Cn1cnc(S(=O)(=O)N2C[C@H](Nc3ccc(Cl)c(C(F)(F)F)c3)[C@@H](c3ccc(F)cc3)C2)c1` [Example 540, (3R,4S)—N-[4-chloro-3-(trifluoromethyl)phenyl]-4-(4-fluorophenyl)-1-[(1-methyl-1H-imidazol-4-yl)sulfonyl]pyrrolidin-3-amine] belongs no less than 7.00.
On to `CC(C)COC(=O)N[C@H]1CN(S(=O)(=O)c2cn(C)cn2)C[C@@H]1c1ccccc1` [Example 543, 2-methylpropyl {(3R,4S)-1-[(1-methyl-1H-imidazol-4-yl)sulfonyl]-4-phenylpyrrolidin-3-yl}carbamate], for which the pKi is no less than 5.00.
To `CCCCCCN[C@H]1CN(S(=O)(=O)c2cn(C)cn2)C[C@@H]1c1ccccc1` [Example 548, (3R,4S)—N-hexyl-1-[(1-methyl-1H-imidazol-4-yl)sulfonyl]-4-phenylpyrrolidin-3-amine] belongs no less than 8.00.
To `Cn1cnc(S(=O)(=O)N2C[C@H](NCC3CCOC(C)(C)C3)[C@@H](c3ccccc3)C2)c1` (stereo partly drawn) [Example 557, (3R,4S)—N-[(2,2-dimethyltetrahydro-2H-pyran-4-yl)methyl]-1-[(1-methyl-1H-imidazol-4-yl)sulfonyl]-4-phenylpyrrolidin-3-amine] belongs no less than 5.00; to `Cn1cnc(S(=O)(=O)N2C[C@H](NCc3cccc4cncn34)[C@@H](c3ccccc3)C2)c1` [Example 560, (3R,4S)—N-(imidazo[1,5-a]pyridin-5-ylmethyl)-1-[(1-methyl-1H-imidazol-4-yl)sulfonyl]-4-phenylpyrrolidin-3-amine], no more than 5.00.
To `Cn1cnc(S(=O)(=O)N2C[C@H](NCc3csc(Cl)n3)[C@@H](c3ccccc3)C2)c1` [Example 562, (3R,4S)—N-[(2-chloro-1,3-thiazol-4-yl)methyl]-1-[(1-methyl-1H-imidazol-4-yl)sulfonyl]-4-phenylpyrrolidin-3-amine] belongs no less than 5.00; to `Cc1cccc2ncc(CN[C@H]3CN(S(=O)(=O)c4cn(C)cn4)C[C@@H]3c3ccccc3)n12` [Example 563, (3R,4S)-1-[(1-methyl-1H-imidazol-4-yl)sulfonyl]-N-[(5-methylimidazo[1,2-a]pyridin-3-yl)methyl]-4-phenylpyrrolidin-3-amine], no less than 5.00.
For the compound `Cn1cnc(S(=O)(=O)N2C[C@H](NCCCC3CC3)[C@@H](c3ccccc3)C2)c1` [Example 573, (3R,4S)—N-(3-cyclopropylpropyl)-1-[(1-methyl-1H-imidazol-4-yl)sulfonyl]-4-phenylpyrrolidin-3-amine], the negative-log Ki (pKi) was no less than 7.00.
To `Cc1cc(N[C@H]2CN(S(=O)(=O)c3cn(C)cn3)C[C@@H]2c2ccccc2)ncc1F` [Example 574, 5-fluoro-4-methyl-N-{(3R,4S)-1-[(1-methyl-1H-imidazol-4-yl)sulfonyl]-4-phenylpyrrolidin-3-yl}pyridin-2-amine] belongs no less than 7.00; to `CC(C)OCCCNC(=O)[C@@H]1CN(S(=O)(=O)c2cn(C)cn2)C[C@H]1c1ccc(F)cc1` [Example 577, (3S,4R)-4-(4-fluorophenyl)-1-[(1-methyl-1H-imidazol-4-yl)sulfonyl]-N-[3-(propan-2-yloxy)propyl]pyrrolidine-3-carboxamide], less than 5.00.
To `CCCCNC(=O)[C@@H]1CN(S(=O)(=O)c2cn(C)cn2)C[C@H]1c1ccc(F)cc1` [Example 581, (3S,4R)—N-butyl-4-(4-fluorophenyl)-1-[(1-methyl-1H-imidazol-4-yl)sulfonyl]pyrrolidine-3-carboxamide] belongs no less than 7.00; to `Cn1cnc(S(=O)(=O)N2CC(Nc3cccc(C(F)(F)F)c3)C(C3CCCO3)C2)c1` (stereo not drawn) [Example 603, 1-[(1-methyl-1H-imidazol-4-yl)sulfonyl]-4-(tetrahydrofuran-2-yl)-N-[3-(trifluoromethyl)phenyl]pyrrolidin-3-amine], no less than 7.00; to `Cn1cnc(S(=O)(=O)N2C[C@H](Nc3cccc(C(F)(F)F)c3)[C@@H](C3CCCO3)C2)c1` (stereo partly drawn) [Example 604, (3R,4S)-1-[(1-methyl-1H-imidazol-4-yl)sulfonyl]-4-(tetrahydrofuran-2-yl)-N-[3-(trifluoromethyl)phenyl]pyrrolidin-3-amine], no less than 7.00.
To `CCCOc1cc(N[C@H]2CN(S(=O)(=O)c3cn(C)cn3)C[C@@H]2c2ccccc2)ncn1` [Example 622, N-{(3R,4S)-1-[(1-methyl-1H-imidazol-4-yl)sulfonyl]-4-phenylpyrrolidin-3-yl}-6-propoxypyrimidin-4-amine] belongs no less than 7.00.
Take `CCCCOc1cc(N[C@H]2CN(S(=O)(=O)c3cn(C)cn3)C[C@@H]2c2ccccc2)ncn1` [Example 623, 6-butoxy-N-{(3R,4S)-1-[(1-methyl-1H-imidazol-4-yl)sulfonyl]-4-phenylpyrrolidin-3-yl}pyrimidin-4-amine]: the pKi is no less than 7.00.
In the case of `CCCn1cc(C[C@@H]2CN(S(=O)(=O)c3cn(C)cn3)C[C@H]2c2ccccc2)nn1` [Example 659, 4-({(3S,4R)-1-[(1-methyl-1H-imidazol-4-yl)sulfonyl]-4-phenylpyrrolidin-3-yl}methyl)-1-propyl-1H-1,2,3-triazole], the pKi is no less than 5.00.
To `CCCCCCN[C@H]1CN(S(=O)(=O)c2cn(C)cn2)C[C@@H]1c1ccc(F)cc1` [Example 665, (3R,4S)-4-(4-fluorophenyl)-N-hexyl-1-[(1-methyl-1H-imidazol-4-yl)sulfonyl]pyrrolidin-3-amine] belongs no less than 8.00; to `CC(C)Oc1cc(N[C@H]2CN(S(=O)(=O)c3cn(C)cn3)C[C@@H]2c2ccc(F)cc2)ncn1` [Example 716, N-{(3R,4S)-4-(4-fluorophenyl)-1-[(1-methyl-1H-imidazol-4-yl)sulfonyl]pyrrolidin-3-yl}-6-(propan-2-yloxy)pyrimidin-4-amine], no less than 7.00.

(Values after patent US9656955B2, “Pyrrolidine derivatives, pharmaceutical compositions containing them, and their use in therapy” (AbbVie Deutschland GmbH & Co. KG, priority 2013, dated 2017).)
